Literature values as cited in patent US10773080B2, “External trigeminal nerve stimulation for the acute non-invasive treatment of migraine attacks” (Cefaly Technology Sprl, priority 2017, dated 2020).

How the values were obtained:
migraine [1] = details: literature data; for Pain freedom at 2 h: percentage of patients
migraine [2] = details: in vivo

## CN1CCC(C(=O)c2cccc(NC(=O)c3c(F)cc(F)cc3F)n2)CC1 [[B], Lasmiditan]
Migraine [1]; irrespective of MBS
  Nausea freedom at 2 h: ~26%
  Phonophobia freedom at 2 h: ~30%
  Photophobia freedom at 2 h: ~38%
  Vomiting freedom at 2 h: ~5%
Migraine [1]
  At least one treatment-emergent adverse effect: 84%
  Pain relief at 2 h: 65%
  Use of rescue medication between 2 h and 24 h: 42%
  Pain freedom at 2 h: 28%

## C[C@@H]1[C@H](c2ccccc2)C[C@H](NC(=O)c2cnc3c(c2)C[C@@]2(C3)C(=O)Nc3ncccc32)C(=O)N1CC(F)(F)F [[F], Ubrogepant]
Migraine [1]; irrespective of MBS
  Nausea freedom at 2 h: 70.6%
  Phonophobia freedom at 2 h: 60.8%
  Photophobia freedom at 2 h: 54.9%
Migraine [1]
  At least one treatment-emergent adverse effect: 29.4%
  Pain relief at 2 h: 58.8%
  Sustained pain freedom at 24 h: 21.6%
  Pain freedom at 2 h: 25.5%

## O=C(O)Cc1ccccc1Nc1c(Cl)cccc1Cl [diclofenac]
Migraine [2]
  Mean pain score reductions at two hours: 50.5%
  Reduction in mean pain VAS scores at one hour: 26.8%

## CNS(=O)(=O)Cc1ccc2[nH]cc(CCN(C)C)c2c1 [sumatriptan]
Migraine [2]
  Mean pain score reductions at two hours: 40.0%
  Reduction in mean pain VAS scores at one hour: 17.1%
